For eight compounds, TGI and GI50 results are on record in PubChem BioAssay (NCI).

Assay in all cases: NCI anticancer screen, dose series, 48 h
The subject of assay [1] is HT29 colon.
Assay [2] has as its system SN12C renal.
Assay [3] relates to PC-3 prostate.
Assay [4] relates to UO-31 renal.
Assay [5] has as its system T-47D breast.
In assay [6] the test system is HOP-62 NSCLC.
Assay [7] concerns UACC-62 melanoma.
Assay [8] concerns HOP-92 NSCLC.
Assay [9] has as its system HCT-116 colon.
For assay [10], the system named is A498 renal.

Several values for one entry are separate records, joined by “and”; a condition that tells them apart may be missing. Identical values can stand only once.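 Cultured in 96-well plates, cells were exposed to test compound for 48 hours across five concentrations. Here, GI50 denotes the concentration required for 50% inhibition of growth. TGI: concentration producing complete growth inhibition.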 Where only a bound is given, the exact number is not on record here.

Take `Fc1cccc(CSc2ncnc3c2ncn3C2CCCS2)c1` (stereo not drawn): the TGI is 32.7 µM in assay [1]; 82 µM in assay [2]; more than 100 µM in assay [3]; 36.2 µM in assay [4]; more than 100 µM in assay [5]; 40.3 µM in [6]. In addition, the TGI in assay [7] turned out to be 28.8 µM; in assay [8] it was 67.4 µM; in assay [9] it was 26.3 µM; in [10], 41.8 µM.

For `NC(=S)N/N=C/c1ccc(O)cn1`, the GI50 in [1] was 37.9 µM; in assay [2], 8.5 µM and 7.93 µM; in assay [4], 25.5 µM and 7.24 µM; in [6] it was 10.6 µM and 5.65 µM; in assay [7], 2.83 µM and 3.13 µM and 1.83 µM; in [8] it was 6.73 µM. Besides, the GI50 in assay [9] is 13.7 µM and 6.53 µM; in assay [10], 12.4 µM and 36 µM. Further, the TGI in [1] is more than 929 µM; in assay [2] it was 312 µM and 119 µM; in assay [3] it was more than 1500 µM; in assay [4], 66.7 µM and 42 µM and 136 µM; in assay [5] it was more than 451 µM; in [6], 35.7 µM and 16.9 µM and 74.6 µM. Also, the TGI was 10.7 µM and 13.1 µM and 37.3 µM in assay [7]; more than 1300 µM in assay [8]; > 1500 µM and 369 µM in [9]; 131 µM and 292 µM in [10].

For the compound `Cc1cc([N+](=O)[O-])ccc1NS(=O)(=O)c1cc(Cl)ccc1Cl`, the GI50 was 3.81 µM in assay [1]; 2.87 µM in assay [2]; 2.73 µM in [3]; 2.97 µM in assay [4]; 1.92 µM in assay [5]; 3.21 µM in assay [6]. Moreover, the GI50 is 1.29 µM in [7], 0.666 µM in assay [8], 2.85 µM in assay [9] and 1.43 µM in assay [10]. The TGI in [1] is more than 100 µM; in assay [2] it was more than 100 µM; in assay [3], 21.1 µM; in assay [4], 17 µM; in assay [5], 8.01 µM; in [6] it was 16.1 µM. Besides, the TGI was 17.9 µM in assay [7], 3.81 µM in [8], 11.9 µM in assay [9] and 6.24 µM in assay [10].

Turning to `CC(=O)OC1CC[C@@]2(C)C(CC[C@]3(C)C2CC=C2[C@@H]4CC(C)(C)CCC4(C)CCC23C)[C@@]1(C)C(=O)O` (stereo partly drawn), the TGI in assay [1] was found to be 38.9 µM; in assay [2], 41.3 µM; in assay [3] it was 23.1 µM; in assay [4] it was 35.9 µM; in [5], 44.9 µM; in [6], 42 µM. The TGI in assay [7] worked out at 36.6 µM; in [8], 49.9 µM; in assay [9], 46.9 µM; in [10] it was 39.3 µM.

`O=C1c2cc(-c3ccccc3)ccc2-c2c1c1ccc([N+](=O)[O-])cc1c(=O)n2CCCBr`: the GI50 in assay [1] is more than 50 µM; in [2], more than 50 µM; in assay [3], more than 50 µM; in [4] it was more than 50 µM; in assay [5] it was more than 50 µM; in assay [6], more than 30.2 µM. Besides, the GI50 in assay [7] is 49.4 µM; in assay [8] it was 17.8 µM; in [9], more than 50 µM; in assay [10], 32.5 µM. The TGI in [1], in assay [2], in [3], in assay [4], in assay [5] and in assay [6] was more than 50 µM each time. For the same compound, the TGI in assay [7], in [8], in [9] and in [10] was more than 50 µM throughout.

Regarding `CCCCOC(=O)c1ccc(NC(=O)CCl)cc1`, the GI50 in [1] was 1.9 µM; in assay [2] it was 1.56 µM; in assay [3], 3.24 µM; in [4], 1.39 µM; in assay [5], 1.38 µM; in assay [6] it was 1.99 µM. In addition, the GI50 in assay [7] was 2.74 µM; in assay [8], 1.93 µM; in assay [9], 1.29 µM; in assay [10], 14.1 µM. Further, the TGI in [1] is 3.48 µM; in [2], 3.36 µM; in [3], 12.4 µM; in [4] it was 2.84 µM; in [5] it was 4.01 µM; in [6], 3.96 µM. Further, the TGI was 13.3 µM in [7], 3.65 µM in [8], 2.86 µM in [9] and 28.6 µM in assay [10].

For the compound `COc1ccc2nc(NCN3C(=O)c4ccccc4C3=O)sc2c1`, the TGI in assay [1], in assay [2], in assay [3], in assay [4], in assay [5] and in [6] was more than 100 µM throughout. Also, the TGI in assay [7], in [8], in assay [9] and in assay [10] was more than 100 µM each time.

As to `CSc1n(Cc2ccc3ccccc3c2)c(C)c[n+]1Cc1ccc2ccccc2c1`, the GI50 was 0.431 µM in assay [1]; 0.523 µM in assay [2]; 0.563 µM in assay [3]; 1.6 µM in assay [4]; 0.408 µM in assay [5]; 1.39 µM in [6]. Besides, the GI50 in assay [7] was 0.519 µM; in assay [8] it was 0.255 µM; in assay [9], 0.615 µM; in assay [10], 1.13 µM. In addition, the TGI in [1] is 1.6 µM; in assay [2], 1.87 µM; in assay [3], 2.17 µM; in assay [4], 3.84 µM; in assay [5], 2.1 µM; in [6] it was 3.01 µM. The TGI amounted to 1.82 µM in assay [7], 1.28 µM in [8], 1.86 µM in [9] and 2.93 µM in assay [10].
